Experimental data taken from ChEMBL document CHEMBL6120963, “Discovery of Novel PROTAC SIRT6 Degraders with Potent Efficacy against Hepatocellular Carcinoma” (J Med Chem, 2024).
The source made the active and inactive calls. No cut-off for these calls is given here.

Experiments:
SK-HEP1 [1] = experiment: Induction of SIRT6 degradation in human SK-HEP1 cells at 0.5 uM incubated for 36 hrs by In-Cell ELISA relative to control; format: cell-based
SK-HEP1 [2] = experiment: Induction of SIRT6 degradation in human SK-HEP1 cells at 5 uM incubated for 36 hrs by In-Cell ELISA relative to control; format: cell-based
[3] = molecular target: T1, Protein cereblon/NAD-dependent protein deacylase sirtuin-6 (Homo sapiens, UniProt Q8N6T7+Q96SW2); experiment: PROTAC activity at CRBN/SIRT6 in human SK-HEP1 cells assessed as induction of SIRT6 degradation at 200 nM incubated for 36 hrs by In-Cell ELISA relative to control; format: cell-based
Target sequence in this assay (Q8N6T7 2-355 limits assumed): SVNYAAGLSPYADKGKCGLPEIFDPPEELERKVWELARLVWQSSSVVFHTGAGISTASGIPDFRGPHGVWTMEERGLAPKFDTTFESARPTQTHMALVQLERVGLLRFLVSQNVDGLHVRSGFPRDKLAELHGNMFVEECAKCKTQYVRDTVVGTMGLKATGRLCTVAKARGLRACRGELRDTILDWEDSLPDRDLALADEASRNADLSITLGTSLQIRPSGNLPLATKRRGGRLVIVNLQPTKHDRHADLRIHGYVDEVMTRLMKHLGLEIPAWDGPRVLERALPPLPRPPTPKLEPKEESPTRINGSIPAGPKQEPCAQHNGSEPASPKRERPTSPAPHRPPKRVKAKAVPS
Target sequence in this assay (Q96SW2 whole entry partner): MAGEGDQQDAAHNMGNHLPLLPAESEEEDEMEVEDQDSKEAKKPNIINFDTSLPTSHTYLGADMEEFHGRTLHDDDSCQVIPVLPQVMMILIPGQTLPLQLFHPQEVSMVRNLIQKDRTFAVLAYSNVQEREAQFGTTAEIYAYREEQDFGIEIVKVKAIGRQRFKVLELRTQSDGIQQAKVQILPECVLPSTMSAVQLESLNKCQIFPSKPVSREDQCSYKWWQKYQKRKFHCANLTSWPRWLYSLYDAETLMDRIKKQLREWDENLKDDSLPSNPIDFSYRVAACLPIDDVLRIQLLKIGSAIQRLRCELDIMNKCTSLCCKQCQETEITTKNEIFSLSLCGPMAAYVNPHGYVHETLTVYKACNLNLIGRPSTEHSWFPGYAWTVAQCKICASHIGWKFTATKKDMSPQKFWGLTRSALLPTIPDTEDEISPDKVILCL

[4] = molecular target: T1, Protein cereblon/NAD-dependent protein deacylase sirtuin-6; experiment: PROTAC activity at CRBN/SIRT6 in human SK-HEP1 cells assessed as induction of SIRT6 degradation at 2 uM incubated for 36 hrs by In-Cell ELISA relative to control; format: cell-based
Target sequence in this assay (Q8N6T7 2-355 limits assumed): as the sequence (Q8N6T7 2-355 limits assumed) above
Target sequence in this assay (Q96SW2 whole entry partner): as the sequence (Q96SW2 whole entry partner) above

[5] = molecular target: T1, Protein cereblon/NAD-dependent protein deacylase sirtuin-6; experiment: PROTAC activity at CRBN/SIRT6 in human SK-HEP1 cells assessed as induction of SIRT6 degradation at 2 to 3 uM incubated for 36 hrs by Western blot analysis; format: cell-based; conditions: dose 2-3 µM
Target sequence in this assay (Q8N6T7 2-355 limits assumed): as the sequence (Q8N6T7 2-355 limits assumed) above
Target sequence in this assay (Q96SW2 whole entry partner): as the sequence (Q96SW2 whole entry partner) above

[6] = molecular target: T1, Protein cereblon/NAD-dependent protein deacylase sirtuin-6; experiment: PROTAC activity at CRBN/SIRT6 in human SK-HEP1 cells assessed as induction of SIRT6 degradation incubated for 36 hrs by Western blot analysis; format: cell-based; conditions: for Activity: dose 0.02-5 µM
[7] = molecular target: T1, Protein cereblon/NAD-dependent protein deacylase sirtuin-6; experiment: PROTAC activity at CRBN/SIRT6 in human SK-HEP1 cells assessed as efficiency of SIRT6 degradation at 2 uM incubated for 36 hrs by Western blot analysis relative to control; format: cell-based
Target sequence in this assay (Q8N6T7 2-355 limits assumed): as the sequence (Q8N6T7 2-355 limits assumed) above
Target sequence in this assay (Q96SW2 whole entry partner): as the sequence (Q96SW2 whole entry partner) above

[8] = molecular target: T1, Protein cereblon/NAD-dependent protein deacylase sirtuin-6; experiment: PROTAC activity at CRBN/SIRT6 in human Huh-7 cells assessed as induction of SIRT6 degradation incubated for 36 hrs by Western blot analysis; format: cell-based
[9] = molecular target: T1, Protein cereblon/NAD-dependent protein deacylase sirtuin-6; experiment: PROTAC activity at CRBN/SIRT6 in human SK-HEP1 cells assessed as hook effect upto 5 uM incubated for 36 hrs by Western blot analysis; format: cell-based
Target sequence in this assay (Q8N6T7 2-355 limits assumed): as the sequence (Q8N6T7 2-355 limits assumed) above
Target sequence in this assay (Q96SW2 whole entry partner): as the sequence (Q96SW2 whole entry partner) above

[10] = molecular target: T1, Protein cereblon/NAD-dependent protein deacylase sirtuin-6; experiment: PROTAC activity at CRBN/SIRT6 in human SK-HEP1 cells assessed as induction of SIRT6 degradation upto 10 uM incubated for 36 hrs by Western blot analysis relative to control; format: cell-based
Target sequence in this assay (Q8N6T7 2-355 limits assumed): as the sequence (Q8N6T7 2-355 limits assumed) above
Target sequence in this assay (Q96SW2 whole entry partner): as the sequence (Q96SW2 whole entry partner) above

[11] = molecular target: T1, Protein cereblon/NAD-dependent protein deacylase sirtuin-6; experiment: PROTAC activity at CRBN/SIRT6 in human Huh-7 cells assessed as induction of SIRT6 degradation upto 10 uM incubated for 36 hrs by Western blot analysis relative to control; format: cell-based
SK-HEP1 [12] = experiment: Cytotoxicity against human SK-HEP1 cells incubated for 72 hrs by CCK8 assay; format: functional, cell-based; conditions: SK-HEP1, 72 h
[13] = molecular target: T1, Protein cereblon/NAD-dependent protein deacylase sirtuin-6; experiment: PROTAC activity at CRBN/SIRT6 in human SK-HEP1 cells assessed as induction of SIRT6 degradation at 0.5 uM incubated for 36 hrs by In-Cell ELISA relative to control; format: cell-based
[14] = molecular target: T1, Protein cereblon/NAD-dependent protein deacylase sirtuin-6; experiment: PROTAC activity at CRBN/SIRT6 in human SK-HEP1 cells assessed as induction of SIRT6 degradation at 5 uM incubated for 36 hrs by In-Cell ELISA relative to control; format: cell-based
[15] = molecular target: T1, Protein cereblon/NAD-dependent protein deacylase sirtuin-6; experiment: PROTAC activity at CRBN/SIRT6 in human SK-HEP1 cells assessed as induction of SIRT6 degradation at 0.02 to 5 uM incubated for 36 hrs by Western blot analysis; format: cell-based; conditions: dose 0.02-5 µM
[16] = molecular target: T1, Protein cereblon/NAD-dependent protein deacylase sirtuin-6; experiment: PROTAC activity at CRBN/SIRT6 in human Huh-7 cells assessed as hook effect at 5 uM incubated for 36 hrs by Western blot analysis; format: cell-based

| SMILES | Activity [3] | Activity [4] | Activity [5] | other results |
| --- | --- | --- | --- | --- |
| Nc1cccc2c1C(=O)N(C1CCC(=O)NC1=O)C2=O (stereo not given) | – | – | – | Activity (SK-HEP1 [1]): 6.5%; Activity (SK-HEP1 [2]): 10.9% |
| Nc1cc(N2CCN(CCC3CCN(c4ccc5c(c4)C(=O)N(C4CCC(=O)NC4=O)C5=O)CC3)CC2)ccc1[N+](=O)[O-] (stereo not given) | 11.2% | 79.6% | Active | – |
| Nc1cc(N2CCN(CC3C4CN(c5ccc6c(c5)C(=O)N(C5CCC(=O)NC5=O)C6=O)CC34)CC2)ccc1[N+](=O)[O-] (stereo not given) | – | 17.8% | – | – |
| Nc1cc(N2CCN(CC3CCN(c4ccc5c(c4)C(=O)N(C4CCC(=O)NC4=O)C5=O)C3)CC2)ccc1[N+](=O)[O-] (stereo not given) | 11.9% | 98.2% | Active | DC50 [6]: 91.5 nM; Activity [6]: Dose-dependent-effect; Activity [7]: > 95%; DC50 [8]: 360 nM; Activity [9]: inactive; Emax [10]: 96.2%; Emax [11]: 78.5%; IC50 (SK-HEP1 [12]): 2190 nM |
| Nc1cc(N2CCN(CCOCCOCC(=O)Nc3cccc4c3C(=O)N(C3CCC(=O)NC3=O)C4=O)CC2)ccc1[N+](=O)[O-] (stereo not given) | – | – | Active | Activity [13]: 46.7%; Activity [14]: 90.6% |
| Nc1cc(N2CCN(CCNCC3CCCN(c4ccc5c(c4)C(=O)N(C4CCC(=O)NC4=O)C5=O)C3)CC2)ccc1[N+](=O)[O-] (stereo not given) | 74.2% | 51.6% | – | – |
| Nc1cc(N2CCN(CCOCCOCCOCC(=O)Nc3cccc4c3C(=O)N(C3CCC(=O)NC3=O)C4=O)CC2)ccc1[N+](=O)[O-] (stereo not given) | – | – | Active | Activity [13]: 44.9%; Activity [14]: 80.8% |
| Nc1cc(N2CCN(CCNCC3C4CN(c5cc6c(cc5F)C(=O)N(C5CCC(=O)NC5=O)C6=O)CC34)CC2)ccc1[N+](=O)[O-] (stereo not given) | – | < 10% | – | – |
| Nc1cc(N2CCN(CCNCC3CN(c4cc5c(cc4F)C(=O)N(C4CCC(=O)NC4=O)C5=O)C3)CC2)ccc1[N+](=O)[O-] (stereo not given) | 46.1% | 83.5% | – | – |
| Nc1cc(N2CCN(CCCC3CCN(c4cc5c(cc4F)C(=O)N(C4CCC(=O)NC4=O)C5=O)CC3)CC2)ccc1[N+](=O)[O-] (stereo not given) | 90.3% | 94.6% | Active | DC50 [6]: 50.4 nM; Activity [15]: Active; DC50 [8]: 263 nM; Activity ([8]; dose 0.008-5 µM): Dose-dependent-effect; But Reduced Degradation Efficiency Observed; Activity [16]: Active; Emax [10]: 97.7%; Emax [11]: 81.5%; IC50 (SK-HEP1 [12]): 1640 nM |
| Nc1cc(N2CCN(CCNCC3CCCN(c4cc5c(cc4F)C(=O)N(C4CCC(=O)NC4=O)C5=O)C3)CC2)ccc1[N+](=O)[O-] (stereo not given) | 81.2% | 98.5% | Active | – |
| Nc1cc(N2CCN(CCNCC3CCN(c4ccc5c(c4)C(=O)N(C4CCC(=O)NC4=O)C5=O)C3)CC2)ccc1[N+](=O)[O-] (stereo not given) | – | < 10% | – | – |
| Nc1cc(N2CCN(CC(=O)Nc3cccc4c3C(=O)N(C3CCC(=O)NC3=O)C4=O)CC2)ccc1[N+](=O)[O-] (stereo not given) | – | – | – | Activity [13]: < 5%; Activity [14]: 17.4% |
| Nc1cc(N2CCN(CC3CCN(c4ccc5c(c4)C(=O)N(C4CCC(=O)NC4=O)C5=O)CC3)CC2)ccc1[N+](=O)[O-] (stereo not given) | 85.9% | 93.6% | Active | DC50 [6]: 106 nM; Activity [6]: Dose-dependent-effect; Activity [7]: > 95%; DC50 [8]: 239 nM; Activity [9]: inactive; Emax [10]: 94.8%; Emax [11]: 90.6%; IC50 (SK-HEP1 [12]): 1750 nM |
| Nc1cc(N2CCN(CCNCCC3CCN(c4cc5c(cc4F)C(=O)N(C4CCC(=O)NC4=O)C5=O)CC3)CC2)ccc1[N+](=O)[O-] (stereo not given) | – | 74.8% | Active | – |
| Nc1cc(N2CCN(CC3CCCN(c4cc5c(cc4F)C(=O)N(C4CCC(=O)NC4=O)C5=O)C3)CC2)ccc1[N+](=O)[O-] (stereo not given) | < 10% | 56.6% | – | Activity [9]: inactive |
| Nc1cc(N2CCN(CCCC3CCN(c4ccc5c(c4)C(=O)N(C4CCC(=O)NC4=O)C5=O)CC3)CC2)ccc1[N+](=O)[O-] (stereo not given) | 84.9% | 98.9% | Active | – |
| Nc1cc(N2CCN(CC3CCN(c4cc5c(cc4F)C(=O)N(C4CCC(=O)NC4=O)C5=O)C3)CC2)ccc1[N+](=O)[O-] (stereo not given) | 94.5% | 99.8% | Active | – |
| Nc1cc(N2CCN(CCC3CCN(c4cc5c(cc4F)C(=O)N(C4CCC(=O)NC4=O)C5=O)CC3)CC2)ccc1[N+](=O)[O-] (stereo not given) | < 10% | 19.8% | – | – |
| Nc1cc(N2CCN(CCOCCOCCOCCOCC(=O)Nc3cccc4c3C(=O)N(C3CCC(=O)NC3=O)C4=O)CC2)ccc1[N+](=O)[O-] (stereo not given) | – | – | – | Activity [13]: 27.8% |
